Measurements reported in PMC6611044, “Pharmacokinetic analysis of new synthetic antimalarial N-251” (Tropical Medicine and Health, 2019).
≈ marks a conversion by molar mass, not a printed value. Entries after “also recorded” stand apart in the source; their conditions may differ. Where two headings read alike, the source gives them in different places.

Legend:
[1] = Multiple p.o. dosing plasma concentration-time profile and simulation; type: in vivo, mice
Method: N-251 was administered p.o. at a dose of 68 mg/kg every 8 h for 2 days in normal-fed mice. Blood sample was collected at 15, 30, and 45 min as well as 1, 1.5, 2, 3, 4, 6, 8, 10, 16, 18, 24, 26, 32, 34, 40, 42, 44, 46, and 48 h after administration. Data were expressed as mean (n = 6) with the bar indicating the SD value. Simulation of plasma concentration-time profile after multiple dosing was performed by utilizing the parameters obtained via fitting analysis for the plasma concentration-time curve after a single p.o. dose of N-251 based on the two-compartment model with the first-order absorption process. The equation and parameters used for the simulation were as follows: Cp=X⋅EXP−ka⋅t−tlag+Y⋅EXP−α⋅t−tlag+Z⋅EXP−β⋅t−tlag,
where ka and tlag are absorption rate constant and lag time, respectively, and X, Y, Z, α, and β are the hybrid parameters. Their values used for simulation were as follows: X = 8422 ng/mL/kg, ka = 0.845 h^−1, Y = − 8419 ng/mL/kg, α = 1.09 h^−[…], Z = 5.29 ng/mL/kg, β = 1.06 h^−1, and lag time = 0.330.

[2] = PK analysis after p.o. administration of N-251 in fasted mice; type: in vivo; conditions: for AUC: 0 to infinity
Method: To analyze the absorption kinetics of N-251, it was orally administered to fasted mice with dose of 210, 100, 68, 50, and 30 mg/kg. Blood sample was collected at 15 and 30 min as well as 1, 1.5, 2, 3, 4, and 6 h post-dose. Data were expressed as the mean (n = 6) ± SD. AUC and MRT after p.o. administration in fasting mice were calculated based on the trapezoidal rule. F was calculated with an AUC of 10 mg/kg of i.v. dose. The highest observed concentration was used as Cmax, and the time for Cmax was defined as Tmax.

[3] = cited from earlier work
[4] = tested on: P. falciparum (FCR-3 strain); parameters: method as in PMID 21501696; conditions: P. falciparum FCR-3 strain in vitro, cited from earlier work
[5] = PK analysis after i.v. administration of N-251 in fasted mice; type: in vivo; conditions: for MRTiv / Vd1 / Vd2 / AUC / k el / clearance / Vd: fasted mice; for A (hybrid parameter) / B (hybrid parameter) / a (hybrid parameter) / b (hybrid parameter): two-compartment fit; for half-life / AUC / k el / clearance / Vd: male, ICR, mouse, plasma; for clearance: read-out: CLtotal (converted); for Vd: read-out: Vdss
Method: We used healthy 5-week-old ICR male mice that were subjected to overnight fasting since the night a day before the test. To analyze N-251 after i.v. administration, doses of 25, 10, and 5 mg/kg were used for each group. The blood sample was collected at 2, 5, 15, and 30 min as well as 1, 2, 4, and 6 h post-dose, and a single blood sample was collected from a single mouse. Preparation of plasma samples of N-251 was described in the “Methods” section. Data were expressed as mean (n = 6) ± standard deviation (SD). Plasma concentration-time profiles after i.v. administration were fitted to a two-compartment model using the non-linear least-squares regression program MULTI [17]. Plasma concentration (Cp) was expressed using the following equation: Cp=A⋅EXP−α⋅t+B⋅EXP−β⋅t.
where A and B are D ⋅ (α − k21)/Vd1/(α − β) and D ⋅ (k21 − β)/Vd1/(α − β), respectively. D, Vd1, and k21 are the dose, apparent distribution volume of central compartment, and distribution rate constant from the peripheral to central compartment, respectively, and α and β represent the slopes of α and β phases of log Cp, respectively. PK parameters were calculated as follows: AUC = A/α +B/β; total body clearance, CLtotal =D/AUC; elimination rate constant, kel = (Aβ + Bα)/(A + B); apparent distribution volume of peripheral compartment, Vd2 =k12/k21·Vd1; distribution volume at steady state, Vdss = Vd1 + Vd2; and mean residence time (MRT) = (k12+ k21)/(kel·k21).

[6] = tested on: P. berghei; parameters: method as in PMID 11428929; conditions: 4-day suppressive test, cited from earlier work
[7] = Solubility; type: physicochemical; conditions: water
[8] = fit of single p.o. dose, two-compartment model with first-order absorption
[9] = male, ICR, mouse, plasma, po, p.o. 30 mg/kg
[10] = male, ICR, mouse, plasma, po, p.o. 50 mg/kg
[11] = male, ICR, mouse, plasma, po, p.o. 68 mg/kg
[12] = male, ICR, mouse, plasma, po, p.o. 100 mg/kg
[13] = male, ICR, mouse, plasma, po, p.o. 210 mg/kg
[14] = i.v. 5, 10 and 25 mg/kg, range over doses

## OCCCCCCC1COOC2(CCCCCCCCCCC2)OOC1 [N-251, 6-(1,2,6,7-tetraoxaspiro [7.11]nonadec-4-yl)hexan-1-ol]
[1]; 68 mg/kg p.o. every 8 h for 2 days, normal-fed mice, except 8 h after the first administration
  minimal plasma concentration (Cmin): greater than 10 ng/mL
[1]; 68 mg/kg p.o. three times per day for 2 days, normal-fed mice
  accumulation on multiple oral dosing: did not accumulate; also recorded: does not accumulate
[1]; [8]
  X (hybrid parameter used for simulation): 8422 ng/mL/kg
  Z (hybrid parameter used for simulation): 5.29 ng/mL/kg
  ka (absorption rate constant): 0.845 h⁻¹
  lag time: 0.330
  α (hybrid parameter used for simulation): 1.09 ng/h/mL/kg
  β (hybrid parameter used for simulation): 1.06 h⁻¹
[2]; ICR, mouse, plasma, po, every group of dose (30-210 mg/kg)
  Tmax: 2 h
[2]; ICR, mouse, plasma, po, p.o. administration, over doses 30-210 mg/kg, read-out: bioavailability (F)
  bioavailability: ~23%
[2]; [9]
  Cmax: 634 ± 129 ng/mL
  Tmax: 2 h
  AUC: 1570 ng·h/mL
[2]; [10]
  Cmax: 1360 ± 799 ng/mL
  Tmax: 2 h
  AUC: 2570 ng·h/mL
[2]; [11]
  Cmax: 1680 ± 811 ng/mL
  Tmax: 2 h
  AUC: 3770 ng·h/mL
[2]; [12]
  Cmax: 2460 ± 802 ng/mL
  Tmax: 2 h
  AUC: 5890 ng·h/mL
[2]; [13]
  Cmax: 4890 ± 1190 ng/mL
  Tmax: 2 h
  AUC: 15200 ng·h/mL
[2]; p.o. 30 mg/kg
  MRTpo: 2.45 h
[2]; p.o. 30 mg/kg, vs AUC of 10 mg/kg i.v.
  F: 0.2156
[2]; p.o. 50 mg/kg
  MRTpo: 2.49 h
[2]; p.o. 50 mg/kg, vs AUC of 10 mg/kg i.v.
  F: 0.2110
[2]; p.o. 68 mg/kg
  MRTpo: 2.46 h
[2]; p.o. 68 mg/kg, vs AUC of 10 mg/kg i.v.
  F: 0.2277
[2]; p.o. 100 mg/kg
  MRTpo: 2.46 h
[2]; p.o. 100 mg/kg, vs AUC of 10 mg/kg i.v.
  F: 0.2419
[2]; p.o. 210 mg/kg
  MRTpo: 2.74 h
[2]; p.o. 210 mg/kg, vs AUC of 10 mg/kg i.v.
  F: 0.2982
[2]; p.o. between 30 and 100 mg/kg
  F: approximately 0.22
[3]; Cremophor EL
  solubility in Cremophor EL: 65 mg/mL (≈ 174 mM)
[3]; olive oil
  solubility in olive oil: 92 mg/mL (≈ 247 mM)
[4]; equivalent of 8.6 ng/mL, read-out: EC50
  EC50: 23 nM
[4]
  EC50: 8.6 ng/mL
[5]; i.v. 5 mg/kg
  MRTiv: 1.12 h
  Vd1: 3.23 L/kg
  Vd2: 1.62 L/kg
  A (hybrid parameter): 1453.6 ± 465.9 ng/mL
  B (hybrid parameter): 92.5 ± 182.0 ng/mL
  a (hybrid parameter): 1.62 ± 0.70 h⁻¹
  b (hybrid parameter): 0.35 ± 0.37 h⁻¹
[5]; i.v. 10 mg/kg
  MRTiv: 0.96 h
  Vd1: 1.58 L/kg
  Vd2: 2.35 L/kg
  A (hybrid parameter): 5922.7 ± 1731.5 ng/mL
  B (hybrid parameter): 410.0 ± 253.8 ng/mL
  a (hybrid parameter): 3.84 ± 1.23 h⁻¹
  b (hybrid parameter): 0.46 ± 0.15 h⁻¹
[5]; i.v. 25 mg/kg
  MRTiv: 0.86 h
  Vd1: 1.36 L/kg
  Vd2: 1.52 L/kg
  A (hybrid parameter): 17,738.1 ± 1700.0 ng/mL
  B (hybrid parameter): 690.4 ± 341.6 ng/mL
  a (hybrid parameter): 3.12 ± 0.55 h⁻¹
  b (hybrid parameter): 0.39 ± 0.10 h⁻¹
[5]; [14]
  T1/2α: 0.18 to 0.429 h
  distribution volume: 2.88 to 4.85 L/kg
[5]; other: i.v. and p.o. administration, i.v. and p.o. administration, read-out: half-life
  half-life: < 2 h
[5]; iv, i.v. 5 mg/kg
  AUC: 1160 ng·h/mL
  k el: 0.000369 s⁻¹
  clearance: 71.7 mL/min/kg
  Vd: 4.85 L/kg
[5]; iv, i.v. 10 mg/kg
  AUC: 2430 ng·h/mL
  k el: 0.000722 s⁻¹
  clearance: 68.5 mL/min/kg
  Vd: 3.93 L/kg
[5]; iv, i.v. 25 mg/kg
  AUC: 7460 ng·h/mL
  k el: 0.000686 s⁻¹
  clearance: 55.8 mL/min/kg
  Vd: 2.88 L/kg
[5]; iv, i.v. 5, 10 and 25 mg/kg, range over doses, read-out: T1/2β
  half-life: 1.5 to 1.99 h
[6]; i.v.
  ED50: 22 mg/kg
[6]; p.o.
  ED50: 15 mg/kg
[7]
  solubility: 0.007 mg/mL (≈ 0.0188 mM)
